Where two headings read alike, the source gives them in different places.
Tests used:
Assay in all cases: KINOMEscan ScanTK
Assay type in all cases: binding
ALK(C1156Y) = biological target: T1, ALK(C1156Y) (Homo sapiens, UniProt Q9UM73, C1156Y)
T1 construct: purchased Eurofins DiscoverX KINOMEscan (scanTK)

EPHB4 = biological target: T2, EPHB4 (Homo sapiens, UniProt P54760)
T2 construct: purchased Eurofins DiscoverX KINOMEscan (scanTK)
T2 sequence (P54760 16-987): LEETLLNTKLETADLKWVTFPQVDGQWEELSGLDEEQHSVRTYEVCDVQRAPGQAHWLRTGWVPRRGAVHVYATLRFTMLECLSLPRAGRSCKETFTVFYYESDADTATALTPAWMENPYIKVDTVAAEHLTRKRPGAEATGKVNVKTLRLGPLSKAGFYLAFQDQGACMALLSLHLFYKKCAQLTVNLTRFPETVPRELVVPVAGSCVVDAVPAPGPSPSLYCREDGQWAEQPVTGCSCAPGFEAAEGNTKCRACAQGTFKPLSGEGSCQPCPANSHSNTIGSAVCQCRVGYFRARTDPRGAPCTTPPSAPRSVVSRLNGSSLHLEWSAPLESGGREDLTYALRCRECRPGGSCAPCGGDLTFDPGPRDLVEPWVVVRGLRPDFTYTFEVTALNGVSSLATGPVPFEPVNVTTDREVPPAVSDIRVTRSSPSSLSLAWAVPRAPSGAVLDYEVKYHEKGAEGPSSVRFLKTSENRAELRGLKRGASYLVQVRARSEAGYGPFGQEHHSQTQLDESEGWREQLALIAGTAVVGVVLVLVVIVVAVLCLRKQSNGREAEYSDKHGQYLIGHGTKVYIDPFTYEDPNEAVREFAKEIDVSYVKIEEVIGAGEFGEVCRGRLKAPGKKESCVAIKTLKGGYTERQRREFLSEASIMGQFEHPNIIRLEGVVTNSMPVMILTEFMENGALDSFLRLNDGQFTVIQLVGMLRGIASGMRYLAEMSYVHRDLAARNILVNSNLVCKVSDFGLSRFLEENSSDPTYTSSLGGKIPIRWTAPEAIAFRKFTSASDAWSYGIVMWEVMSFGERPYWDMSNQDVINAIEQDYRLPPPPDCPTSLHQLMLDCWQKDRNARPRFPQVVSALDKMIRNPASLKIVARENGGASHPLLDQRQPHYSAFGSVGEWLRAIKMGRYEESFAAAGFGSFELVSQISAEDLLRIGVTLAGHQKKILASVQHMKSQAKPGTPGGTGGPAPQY

ITK = biological target: T3, ITK (Homo sapiens, UniProt Q08881); settings: for remaining binding at 1 µM / difference in %Control versus compound Ib at 1 µM: ITK; for inhibition at 1 µM: ScanTK
T3 construct: purchased Eurofins DiscoverX KINOMEscan (scanTK)
T3 sequence (Q08881 1-620): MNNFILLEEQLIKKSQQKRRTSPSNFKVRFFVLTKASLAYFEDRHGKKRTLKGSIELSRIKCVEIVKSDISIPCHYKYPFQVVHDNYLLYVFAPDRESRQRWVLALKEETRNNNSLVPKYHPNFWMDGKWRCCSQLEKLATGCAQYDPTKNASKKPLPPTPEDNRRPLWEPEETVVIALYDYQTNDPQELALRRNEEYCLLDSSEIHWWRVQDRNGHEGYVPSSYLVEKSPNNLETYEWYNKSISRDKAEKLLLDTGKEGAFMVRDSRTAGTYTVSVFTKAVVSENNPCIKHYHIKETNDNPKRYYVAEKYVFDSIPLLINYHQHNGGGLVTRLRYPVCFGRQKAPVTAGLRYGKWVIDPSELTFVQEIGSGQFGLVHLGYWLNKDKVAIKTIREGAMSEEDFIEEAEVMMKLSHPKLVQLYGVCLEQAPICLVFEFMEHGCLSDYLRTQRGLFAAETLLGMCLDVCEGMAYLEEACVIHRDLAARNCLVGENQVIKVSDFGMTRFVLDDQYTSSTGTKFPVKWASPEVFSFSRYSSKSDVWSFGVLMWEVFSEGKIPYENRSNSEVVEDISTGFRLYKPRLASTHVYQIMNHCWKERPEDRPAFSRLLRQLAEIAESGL

MET(Y1235D) = biological target: T4, MET(Y1235D) (Homo sapiens, UniProt P08581, Y1235D)
T4 construct: purchased Eurofins DiscoverX KINOMEscan (scanTK)

[1] = biological target: T5, TYK2(JH2domain-pseudokinase) (Homo sapiens, UniProt P29597); settings: for difference in %Control versus Ib at 1 µM: read-out: % difference (compound - Ib %Control)
T5 construct: TYK2(JH2domain-pseudokinase); purchased Eurofins DiscoverX KINOMEscan (scanTK)
T5 sequence (P29597 575-869 limits assumed): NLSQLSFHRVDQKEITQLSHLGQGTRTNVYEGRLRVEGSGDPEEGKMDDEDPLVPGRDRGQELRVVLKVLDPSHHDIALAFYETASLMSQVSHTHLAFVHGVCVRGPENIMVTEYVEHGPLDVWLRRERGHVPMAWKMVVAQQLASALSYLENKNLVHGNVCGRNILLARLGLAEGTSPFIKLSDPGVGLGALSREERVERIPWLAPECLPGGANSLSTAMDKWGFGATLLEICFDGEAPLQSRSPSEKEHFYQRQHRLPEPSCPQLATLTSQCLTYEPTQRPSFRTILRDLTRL

FGR = biological target: T6, FGR (Homo sapiens, UniProt P09769)
T6 construct: purchased Eurofins DiscoverX KINOMEscan (scanTK)
T6 sequence (P09769 whole entry): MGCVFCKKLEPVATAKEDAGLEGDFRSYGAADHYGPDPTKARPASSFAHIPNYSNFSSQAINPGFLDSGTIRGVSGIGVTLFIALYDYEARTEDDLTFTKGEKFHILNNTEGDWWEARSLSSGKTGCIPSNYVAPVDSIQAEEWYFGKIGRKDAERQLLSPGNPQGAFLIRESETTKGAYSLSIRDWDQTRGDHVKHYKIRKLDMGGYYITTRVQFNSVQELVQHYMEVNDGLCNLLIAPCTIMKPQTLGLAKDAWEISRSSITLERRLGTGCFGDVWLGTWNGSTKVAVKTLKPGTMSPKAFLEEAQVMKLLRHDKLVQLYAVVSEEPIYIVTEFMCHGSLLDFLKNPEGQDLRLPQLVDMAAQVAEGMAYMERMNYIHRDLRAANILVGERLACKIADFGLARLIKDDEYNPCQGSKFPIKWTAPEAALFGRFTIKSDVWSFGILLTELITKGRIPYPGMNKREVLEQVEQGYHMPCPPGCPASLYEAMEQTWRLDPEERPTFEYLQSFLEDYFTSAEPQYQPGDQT

ALK(L1196M) = biological target: T7, ALK(L1196M) (Homo sapiens, UniProt Q9UM73, L1196M)
T7 construct: purchased Eurofins DiscoverX KINOMEscan (scanTK)
T7 sequence (Q9UM73 19-1620 L1196M): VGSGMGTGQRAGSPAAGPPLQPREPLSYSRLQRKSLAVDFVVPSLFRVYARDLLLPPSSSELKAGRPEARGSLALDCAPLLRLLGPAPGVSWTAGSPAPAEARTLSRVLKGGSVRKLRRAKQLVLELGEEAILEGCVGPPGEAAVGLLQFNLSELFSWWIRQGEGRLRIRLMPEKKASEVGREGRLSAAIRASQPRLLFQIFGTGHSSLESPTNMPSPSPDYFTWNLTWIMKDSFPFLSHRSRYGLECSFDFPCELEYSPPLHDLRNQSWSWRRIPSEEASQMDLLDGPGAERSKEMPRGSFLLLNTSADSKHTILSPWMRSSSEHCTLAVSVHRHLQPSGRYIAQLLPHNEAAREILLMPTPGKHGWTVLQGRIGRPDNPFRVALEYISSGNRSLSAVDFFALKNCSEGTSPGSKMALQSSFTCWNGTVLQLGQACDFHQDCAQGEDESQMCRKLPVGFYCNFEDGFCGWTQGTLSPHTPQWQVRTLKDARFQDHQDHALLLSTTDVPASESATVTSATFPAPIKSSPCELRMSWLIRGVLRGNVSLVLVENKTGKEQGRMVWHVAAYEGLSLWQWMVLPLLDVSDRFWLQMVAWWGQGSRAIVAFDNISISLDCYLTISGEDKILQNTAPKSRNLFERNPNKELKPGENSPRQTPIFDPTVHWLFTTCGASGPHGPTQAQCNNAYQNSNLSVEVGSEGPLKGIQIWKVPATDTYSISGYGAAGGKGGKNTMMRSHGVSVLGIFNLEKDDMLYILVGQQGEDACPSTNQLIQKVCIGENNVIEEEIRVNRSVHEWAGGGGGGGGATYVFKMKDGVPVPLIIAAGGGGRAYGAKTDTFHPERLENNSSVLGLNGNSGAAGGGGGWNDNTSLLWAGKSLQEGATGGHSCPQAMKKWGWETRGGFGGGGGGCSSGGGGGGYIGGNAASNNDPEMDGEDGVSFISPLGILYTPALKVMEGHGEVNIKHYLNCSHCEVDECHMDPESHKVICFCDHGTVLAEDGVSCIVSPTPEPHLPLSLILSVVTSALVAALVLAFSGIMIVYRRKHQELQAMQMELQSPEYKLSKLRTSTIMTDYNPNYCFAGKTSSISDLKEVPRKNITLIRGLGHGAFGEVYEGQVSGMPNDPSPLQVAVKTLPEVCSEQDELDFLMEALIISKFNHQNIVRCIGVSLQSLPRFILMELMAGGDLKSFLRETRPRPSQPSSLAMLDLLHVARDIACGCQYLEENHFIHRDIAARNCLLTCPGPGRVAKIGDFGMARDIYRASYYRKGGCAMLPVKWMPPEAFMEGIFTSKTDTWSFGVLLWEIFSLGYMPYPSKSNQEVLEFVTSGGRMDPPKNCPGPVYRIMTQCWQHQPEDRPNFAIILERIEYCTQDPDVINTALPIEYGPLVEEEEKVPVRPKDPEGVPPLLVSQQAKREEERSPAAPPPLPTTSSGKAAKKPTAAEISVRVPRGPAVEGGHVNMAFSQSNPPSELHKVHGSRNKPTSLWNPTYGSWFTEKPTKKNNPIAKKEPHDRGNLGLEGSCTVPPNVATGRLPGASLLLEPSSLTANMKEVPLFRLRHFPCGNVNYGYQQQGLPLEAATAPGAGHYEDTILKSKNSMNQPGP

FAK = biological target: T8, FAK (Homo sapiens, UniProt Q05397)
T8 construct: purchased Eurofins DiscoverX KINOMEscan (scanTK)

[2] = biological target: T9, ABL1(E255K)-phosphorylated (Homo sapiens, UniProt P00519, E255K); settings: for difference in %Control from reference Ib at 1 µM: read-out: % difference (compound - Ib %Control)
T9 construct: purchased Eurofins DiscoverX KINOMEscan (scanTK)
T9 sequence (P00519 whole entry E255K): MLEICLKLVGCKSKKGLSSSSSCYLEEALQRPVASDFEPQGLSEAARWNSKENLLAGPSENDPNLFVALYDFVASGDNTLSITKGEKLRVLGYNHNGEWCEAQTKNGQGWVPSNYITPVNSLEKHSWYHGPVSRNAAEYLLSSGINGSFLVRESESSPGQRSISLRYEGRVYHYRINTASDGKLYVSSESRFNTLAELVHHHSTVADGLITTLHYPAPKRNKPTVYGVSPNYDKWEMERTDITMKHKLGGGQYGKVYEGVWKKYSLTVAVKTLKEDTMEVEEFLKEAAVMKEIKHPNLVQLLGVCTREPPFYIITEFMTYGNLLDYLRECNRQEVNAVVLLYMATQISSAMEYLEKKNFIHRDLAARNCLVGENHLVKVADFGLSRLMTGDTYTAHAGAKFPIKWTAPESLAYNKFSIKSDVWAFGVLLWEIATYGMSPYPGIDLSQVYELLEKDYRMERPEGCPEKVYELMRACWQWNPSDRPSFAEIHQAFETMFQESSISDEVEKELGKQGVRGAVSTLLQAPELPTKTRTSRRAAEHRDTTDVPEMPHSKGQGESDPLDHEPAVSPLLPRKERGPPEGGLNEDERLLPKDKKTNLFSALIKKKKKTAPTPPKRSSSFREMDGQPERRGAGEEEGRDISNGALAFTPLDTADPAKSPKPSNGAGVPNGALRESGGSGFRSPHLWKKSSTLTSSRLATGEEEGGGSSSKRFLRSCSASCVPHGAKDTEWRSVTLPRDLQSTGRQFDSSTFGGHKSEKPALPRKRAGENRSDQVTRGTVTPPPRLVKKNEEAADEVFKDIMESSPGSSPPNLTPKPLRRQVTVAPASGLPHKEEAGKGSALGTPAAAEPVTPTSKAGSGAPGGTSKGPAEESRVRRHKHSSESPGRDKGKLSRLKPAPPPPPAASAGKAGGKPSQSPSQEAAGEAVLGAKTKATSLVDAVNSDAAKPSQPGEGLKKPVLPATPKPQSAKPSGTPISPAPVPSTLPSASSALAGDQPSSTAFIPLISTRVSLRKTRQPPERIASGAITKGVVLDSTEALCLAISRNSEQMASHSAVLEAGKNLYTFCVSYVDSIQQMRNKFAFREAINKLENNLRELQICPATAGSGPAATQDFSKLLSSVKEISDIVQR

MET = biological target: T10, MET (Homo sapiens, UniProt P08581)
T10 construct: purchased Eurofins DiscoverX KINOMEscan (scanTK)
T10 sequence (P08581 25-1390): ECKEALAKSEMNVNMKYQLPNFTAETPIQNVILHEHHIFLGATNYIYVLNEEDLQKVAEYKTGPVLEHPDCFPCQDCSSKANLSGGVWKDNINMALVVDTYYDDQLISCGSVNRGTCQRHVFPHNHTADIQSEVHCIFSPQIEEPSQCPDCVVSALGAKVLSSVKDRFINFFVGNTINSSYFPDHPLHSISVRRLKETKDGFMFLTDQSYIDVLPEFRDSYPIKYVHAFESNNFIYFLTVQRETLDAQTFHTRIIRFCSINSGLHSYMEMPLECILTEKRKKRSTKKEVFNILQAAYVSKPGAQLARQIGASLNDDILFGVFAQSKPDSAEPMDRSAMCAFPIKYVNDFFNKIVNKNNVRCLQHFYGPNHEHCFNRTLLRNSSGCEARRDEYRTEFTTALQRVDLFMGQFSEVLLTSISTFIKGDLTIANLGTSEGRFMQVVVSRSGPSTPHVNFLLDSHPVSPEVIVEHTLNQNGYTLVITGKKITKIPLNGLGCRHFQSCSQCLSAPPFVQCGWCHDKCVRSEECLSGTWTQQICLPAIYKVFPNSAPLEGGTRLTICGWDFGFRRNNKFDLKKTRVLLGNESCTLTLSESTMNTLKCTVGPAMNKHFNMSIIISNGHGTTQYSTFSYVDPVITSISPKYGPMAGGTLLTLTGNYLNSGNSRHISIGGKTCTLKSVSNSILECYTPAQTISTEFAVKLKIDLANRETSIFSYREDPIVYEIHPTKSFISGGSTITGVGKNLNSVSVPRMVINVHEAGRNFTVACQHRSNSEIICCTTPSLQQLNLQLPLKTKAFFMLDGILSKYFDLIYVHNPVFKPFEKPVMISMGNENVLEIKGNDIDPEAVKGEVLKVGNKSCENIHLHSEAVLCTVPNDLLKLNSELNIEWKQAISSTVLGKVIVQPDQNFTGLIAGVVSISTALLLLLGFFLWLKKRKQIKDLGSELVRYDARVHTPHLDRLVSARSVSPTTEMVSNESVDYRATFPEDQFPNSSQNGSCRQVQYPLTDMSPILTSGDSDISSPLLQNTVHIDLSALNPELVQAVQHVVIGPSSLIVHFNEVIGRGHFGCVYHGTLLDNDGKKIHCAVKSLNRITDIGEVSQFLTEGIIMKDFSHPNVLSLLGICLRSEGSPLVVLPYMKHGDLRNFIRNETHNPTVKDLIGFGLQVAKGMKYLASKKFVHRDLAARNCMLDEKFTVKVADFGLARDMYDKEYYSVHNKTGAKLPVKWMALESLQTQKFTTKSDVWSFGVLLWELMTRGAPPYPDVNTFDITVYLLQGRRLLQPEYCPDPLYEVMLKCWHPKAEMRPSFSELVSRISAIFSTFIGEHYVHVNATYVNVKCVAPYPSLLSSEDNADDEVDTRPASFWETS

[3] = biological target: T11, TYK2(JH1domain-catalytic) (Homo sapiens, UniProt P29597)
T11 construct: TYK2(JH1domain-catalytic); purchased Eurofins DiscoverX KINOMEscan (scanTK)
T11 sequence (P29597 888-1187 limits assumed): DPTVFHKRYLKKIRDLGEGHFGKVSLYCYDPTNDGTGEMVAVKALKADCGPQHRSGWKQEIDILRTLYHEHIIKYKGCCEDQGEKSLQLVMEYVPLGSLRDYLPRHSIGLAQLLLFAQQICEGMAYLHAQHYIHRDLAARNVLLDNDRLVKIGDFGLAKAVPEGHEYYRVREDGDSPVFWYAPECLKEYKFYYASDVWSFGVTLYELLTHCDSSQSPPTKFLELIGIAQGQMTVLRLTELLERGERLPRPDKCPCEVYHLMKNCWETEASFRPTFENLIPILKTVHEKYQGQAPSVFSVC

[4] = biological target: T12, ABL1(F317L)-phosphorylated (Homo sapiens, UniProt P00519, F317L)
T12 construct: purchased Eurofins DiscoverX KINOMEscan (scanTK)
T12 sequence (P00519 whole entry F317L): as the sequence (P00519 whole entry E255K) above, with K255E, F317L counted along it

T1 sequence (Q9UM73 19-1620 C1156Y): as the sequence (Q9UM73 19-1620 L1196M) above, with C1138Y, M1178L counted along it

Compound | remaining binding at 1 µM (ALK(C1156Y); @1000nM, read-out: %Control) | remaining binding at 1 µM (ALK(C1156Y); read-out: %Control @1000nM) | remaining binding at 1 µM (EPHB4; @1000nM, read-out: %Control) | remaining binding at 1 µM (EPHB4; read-out: %Control @1000nM) | remaining binding at 1 µM (ITK; @1000nM, read-out: %Control) | remaining binding at 1 µM (ITK; read-out: %Control @1000nM) | inhibition at 1 µM (ITK) | remaining binding at 1 µM (MET(Y1235D); @1000nM, read-out: %Control) | remaining binding at 1 µM (MET(Y1235D); read-out: %Control @1000nM) | remaining binding at 1 µM ([1]; @1000nM, read-out: %Control) | remaining binding at 1 µM ([1]; read-out: %Control @1000nM) | remaining binding at 1 µM (ALK(L1196M); @1000nM, read-out: %Control) | remaining binding at 1 µM (ALK(L1196M); read-out: %Control @1000nM) | remaining binding at 1 µM (FAK; @1000nM, read-out: %Control) | remaining binding at 1 µM (FAK; read-out: %Control @1000nM) | remaining binding at 1 µM ([2]; @1000nM, read-out: %Control) | remaining binding at 1 µM ([2]; read-out: %Control @1000nM) | remaining binding at 1 µM (MET; @1000nM, read-out: %Control) | remaining binding at 1 µM (MET; read-out: %Control @1000nM) | difference in %Control versus compound Ib at 1 µM (ALK(C1156Y); @1000nM) | further results
C=CC(=O)N1CCC[C@@H](n2nc(-c3ccc(Oc4ccccc4)cc3)c3c(N)ncnc32)C1 [Compound 1g, Ibrutinib, reference compound] | 98% | 98% | 100% | 100% | 15% | 15% | 85% | 96% | 96% | 88% | 88% | 100% | 100% | 100% | 100% | 64% | 64% | 100% | 100% |  | %Control @1000nM (FGR): 5.3%; %Control (FGR; @1000nM): 5.3%
Cc1cnc(S(C)(=O)=O)nc1N1CCCC(n2nc(-c3ccc(Oc4ccccc4)cc3)c3c(N)ncnc32)C1 (centres unmarked) [Compound 8a, 1-(1-(5-Methyl-2-(methylsulfonyl)pyrimidin-4-yl)piperidin-3-yl)-3-(4-phenoxyphenyl)-1H-pyrazolo[3,4-d]pyrimidin-4-amine] | 85% | 85% | 100% | 100% | 84% | 84% | 16% | 100% | 100% | 92% | 92% | 95% | 95% | 99% | 99% | 76% | 76% | 100% | 100% | -13% | difference in %Control from compound Ib at 1 µM (EPHB4; @1000nM): 0%; remaining binding at 1 µM ([3]; @1000nM, read-out: %Control): 89%; remaining binding at 1 µM ([3]; read-out: %Control @1000nM): 89%; difference in %Control versus compound Ib at 1 µM (ITK; @1000nM): 69%; difference in %Control versus Ib at 1 µM ([1]; @1000nM): 4%; difference in %Control versus compound Ib at 1 µM (FGR; @1000nM): 3.3%; remaining binding at 1 µM (FGR; @1000nM, read-out: %Control): 8.6%; remaining binding at 1 µM (FGR; read-out: %Control @1000nM): 8.6%; difference in % of control vs compound Ib at 1 µM (ALK(L1196M); @1000nM): -5%; difference in %Control versus compound Ib at 1 µM (FAK; @1000nM): -1%; difference in %Control from compound Ib at 1 µM ([4]; @1000nM): 15%; remaining binding at 1 µM ([4]; @1000nM, read-out: %Control): 52%; remaining binding at 1 µM ([4]; read-out: %Control @1000nM): 52%; difference in %Control from reference Ib at 1 µM ([2]; @1000nM): 12%
COC(=O)c1cnc(S(C)(=O)=O)nc1N1CCCC(n2nc(-c3ccc(Oc4ccccc4)cc3)c3c(N)ncnc32)C1 (centres unmarked) [Compound 8b, Methyl 4-(3-(4-Amino-3-(4-phenoxyphenyl)-1H-pyrazolo[3,4-d]pyrimidin-1-yl)piperidin-1-yl)-2-(methylsulfonyl)pyrimidine-5-carboxylate] | 90% | 90% | 98% | 98% | 71% | 71% | 29% | 94% | 94% | 96% | 96% | 92% | 92% | 100% | 100% | 81% | 81% | 100% | 100% | -8% | difference in %Control from compound Ib at 1 µM (EPHB4; @1000nM): -2%; remaining binding at 1 µM ([3]; @1000nM, read-out: %Control): 95%; remaining binding at 1 µM ([3]; read-out: %Control @1000nM): 95%; difference in %Control versus compound Ib at 1 µM (ITK; @1000nM): 56%; difference in %Control versus Ib at 1 µM ([1]; @1000nM): 8%; difference in %Control versus compound Ib at 1 µM (FGR; @1000nM): 20.7%; remaining binding at 1 µM (FGR; @1000nM, read-out: %Control): 26%; remaining binding at 1 µM (FGR; read-out: %Control @1000nM): 26%; difference in % of control vs compound Ib at 1 µM (ALK(L1196M); @1000nM): -8%; difference in %Control versus compound Ib at 1 µM (FAK; @1000nM): 0%; difference in %Control from compound Ib at 1 µM ([4]; @1000nM): 16%; remaining binding at 1 µM ([4]; @1000nM, read-out: %Control): 53%; remaining binding at 1 µM ([4]; read-out: %Control @1000nM): 53%; difference in %Control from reference Ib at 1 µM ([2]; @1000nM): 17%

Reference: publication PMC11345841, “Exploring 2-Sulfonylpyrimidine Warheads as Acrylamide Surrogates for Targeted Covalent Inhibition: A BTK Story” (Journal of Medicinal Chemistry, 2024)
